The target in one experiment is T1, 5-HT2A receptor (Homo sapiens, UniProt P28223).
T1 construct: expressed in transfected cells; host or cells: CHO-K1 (alternatively human cortex tissue)
As to the kind of experiment: radioligand binding assay for 5-HT2A receptor ([3H]-ketanserin competitive binding). The settings on record: human cortex or recombinant 5-HT2A receptor expressed in CHO-K1 cells. The method, then: (§1) The effect of the compounds of the present invention on the neurochemical steady state was determined by in vitro investigations such as a radionuclide-marked radioligand binding assay for 5-HT2A (Bonhaus D. W. Br. J. Pharmacol. 1995, 115:622; Saucier C. J. Neurochem. 1997, 68:1998) and 5-HT2C receptors (Wolf W. A. J. Neurochem. 1997, 69:1449), in vitro binding assay for the σ1 receptor (Thomson W. and Donn R. Arthritis Res. 2002, 4: 302-306) and by in vivo investigations in a tail suspension test (Vogel H. G. and Vogel W. H. Drug Discovery and Evaluation Pharmacological Assays, Springer 1997, 304), in amphetamine-induced hyperlocomotion in mice (Millan M. J. et al, 1998 J Pharmacol. Exp. Ther. 287: 167-186), in a forced swim test in mice (Porsolt R. D. et al. Arch. Int. Pharmacodyn. 1977, 229:327-336), in meta-chlorophenyl piperazine (m-CPP) test on rats (Drug Dev. Res. 1989, 18:119-144), and in apomorphine, tryptamine, norepinephrine (ATN) test in rats (Arch. […]
(§2) A small concentration of a radioligand having a great affinity for binding to a receptor was incubated with a tissue sample enriched with a certain receptor (1-5 mg of tissue) in a buffered medium (0.2-5 mL). […] When a binding balance was achieved, the receptors to which the radioligand was bound were separated from those to which said ligand was not bound, and the radioactivity of the receptor/radioligand complex was measured. […]

A further experiment concerns the target T2, 5-HT2C receptor (Homo sapiens, UniProt P28335).
T2 construct: expressed in transfected cells; host or cells: CHO-K1 (alternatively choroid plexus tissue)
T2 sequence (P28335 33-458): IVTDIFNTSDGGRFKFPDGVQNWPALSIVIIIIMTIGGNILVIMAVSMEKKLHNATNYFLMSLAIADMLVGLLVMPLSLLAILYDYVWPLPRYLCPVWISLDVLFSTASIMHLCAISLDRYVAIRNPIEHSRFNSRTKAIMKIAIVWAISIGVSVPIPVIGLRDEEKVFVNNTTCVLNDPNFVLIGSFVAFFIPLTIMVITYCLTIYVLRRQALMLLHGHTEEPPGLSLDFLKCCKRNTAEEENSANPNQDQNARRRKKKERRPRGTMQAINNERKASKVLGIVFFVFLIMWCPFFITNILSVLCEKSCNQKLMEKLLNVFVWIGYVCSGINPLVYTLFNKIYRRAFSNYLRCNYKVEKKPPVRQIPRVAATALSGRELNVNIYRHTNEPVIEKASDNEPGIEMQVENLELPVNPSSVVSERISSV
Put plainly: radioligand binding assay for 5-HT2C receptor ([3H]-mesulergine competitive binding). The settings on record: choroid plexus or recombinant 5-HT2C receptor expressed in CHO-K1 cells. The method, then: as §1, §2

T1 sequence (P28223 whole entry): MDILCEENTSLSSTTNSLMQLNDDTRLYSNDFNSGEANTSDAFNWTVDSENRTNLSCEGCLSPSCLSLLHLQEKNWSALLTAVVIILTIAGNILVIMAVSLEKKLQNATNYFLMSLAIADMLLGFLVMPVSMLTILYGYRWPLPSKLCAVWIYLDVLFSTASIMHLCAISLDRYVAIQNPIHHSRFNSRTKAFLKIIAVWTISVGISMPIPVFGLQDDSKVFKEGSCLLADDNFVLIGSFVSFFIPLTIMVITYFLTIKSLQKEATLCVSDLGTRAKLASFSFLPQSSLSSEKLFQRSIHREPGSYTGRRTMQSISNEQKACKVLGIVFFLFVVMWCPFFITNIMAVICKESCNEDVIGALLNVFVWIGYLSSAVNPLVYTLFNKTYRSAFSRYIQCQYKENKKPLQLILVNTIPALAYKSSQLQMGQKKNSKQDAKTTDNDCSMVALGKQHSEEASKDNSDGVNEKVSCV

With `CN(C)CCOCc1cc2c(o1)-c1cc(Cl)ccc1Oc1ccccc1-2` [[2-(11-chloro-1,8-dioxa-dibenzo[e,h]azulen-2-ylmethoxy)-ethyl]-dimethyl-amine], the half-inhibitory concentration (IC50) on 5-HT2A receptor (read-out: binding affinity to 5-HT2A serotonin receptor expressed as IC50 value) and at 5-HT2C receptor (read-out: binding affinity to 5-HT2C serotonin receptor expressed as IC50 value) was < 200 nM in each case. In addition, the Ki (in general, a dissociation constant, usually derived from enzyme kinetics or from competition with a known ligand) at 5-HT2A receptor (read-out: binding affinity to 5-HT2A serotonin receptor, Ki value) was < 100 nM; at 5-HT2C receptor (read-out: binding affinity to 5-HT2C serotonin receptor, Ki value) it was < 100 nM.

(Values after patent US20070173493A1, “1-Oxadibenzo[e,h]azulenes for the treatment of central nervous system diseases and disorders” (Pliva-Istrazivacki Institut d.o.o., priority 2003, published 2007).)
